14 molecules from US20120245229A1, “METHOD FOR TREATING NEUROPATHIC PAIN” (priority 2009, published 2012) can be followed below.

Read-outs that look alike come from different tables or passages of the source.

The subject of one experiment is lamina II neurons. Nature of the experiment: Patch clamp recording of sEPSCs in lamina II neurons of spinal cord slices. It is filed as cell-based, mice. The procedure: (§1) Spinal cord slice preparation. As previously reported^39, a portion of the lumbar spinal cord (L4-L5) was removed from young mice (3-4 week old) under urethane anesthesia (1.5-2.0 g/kg, i.p.) and transverse spinal cord slices were cut (600 μm) on a vibrating microslicer. The slices were perfused with Kreb's solution (8 ml/min) for >2 h prior to experiments. Some slices were stimulated with TNF-α (10 ng/ml, 5 min), the slices were fixed with 4% paraformaldehyde for 1 h, and processed pERK immunohistochemistry using thin sections (15 μm)^13.
(§2) Patch clamp recordings in spinal slices. Whole cell patch-clamp recordings were performed in lamina II neurons in voltage clamp mode^39. After establishing the whole-cell configuration, neurons were held at the holding potentials of −70 mV for recording spontaneous excitatory postsynaptic current (sEPSC). NMDA-induced currents were recorded by bath application of NMDA (50 μM, Sigma) at the holding potential of −50 mV. Membrane currents were amplified with an Axopatch 200A amplifier (Axon Instruments) in voltage-clamp mode. pCLAMP 6 was used and Mini Analysis (Synaptosoft Inc.) software to store and analyze the data. Those cells showing >5% changes from the baseline levels were reagrded as responding ones^24.
(§3) Resolvins were also used for intraplantar injection. RvD1 or RvE1 was injected into the plantar surface of a hindapaw [20 ng, 20 μl , in 1% ethanol (Supplementary FIG. 5a, 5b) or in 10% ethanol (FIG. 2e, Supplementary FIG. 1d)]. DRG cultures were incubated with RvE1 (10 ng/ml, 0.1% ethanol in culture medium) and perfused spinal cord slices with RvE1 (1 ng/ml, in 0.01% ethanol and Kreb's solution).
(§4) Perfusion of spinal cord slices: Spinal cord slices were incubated with chemerin (100 ng/ml, in Kreb's solution), TNF-α (10 ng/ml, in Kreb's solution), capsaicin (100 nM, in 0.01% DMSO and Kreb's solution), TRPV1 antagonist capsazepine (Sigma, 10 μM, in 0.01% DMSO and Kreb's solution), pertussix toxin (0.5 μg/ml, in Kreb's solution), and MEK inhibitor PD98059 and U0126 (CalBiochem, 1 μM, in 0.01% DMSO and Kreb's solution). For pertussix toxin treatment, spinal cord slices were incubated with the toxin for 3 h before stimulation.
For orientation: Patch clamp records ionic current or voltage across a cell membrane.

Experiment [1] relates to glutamate NMDA receptors (NMDARs). Briefly: NMDA-induced currents in dorsal horn (lamina II) neurons of spinal cord slices. Type of experiment: cell-based, mice. The settings on record: NMDA 50 μM; TNF-α 10 ng/ml; PD98059 1 μM, U0126 1 μM, capsazepine 10 μM. The procedure:
as §1, §2, §3, §4

Experiment [2] relates to complete Freund's adjuvant (CFA)-evoked heat hyperalgesia. Briefly: CFA-evoked heat hyperalgesia (paw withdrawal latency, Hargreaves). It is filed as in vivo, mice. To be noted: intrathecal; for effective doses relative to that of RvE1: CFA heat hyperalgesia. The procedure: (§5) Animals and pain models. Adult CD1 mice (male, 25-32 g) were used for most experiments. Knockout mice were used lacking TNFR1/II (Tnfrsf1a/1b^−/−) and TRPV1 (Trpv1^−/−) and C57BL/6 wild-type control mice, all from Jackson, for some experiments. All animal procedures performed in this study were approved by the Harvard Medical Area Standing Committee on Animals. 20 μl of diluted formalin (5%), carrageenan (CRG, 1%), or complete Freund's adjuvant (CFA) were injected into the plantar surface of a hindpaw to produce acute, persistent, or chronic inflammatory pain, respectively. Postoperative pain was also produced through hindpaw incision^36 and neuropathic pain by ligation of the spinal nerve^37.
(§6) Reagents and administration. RvE1 and RvD1 were suspended in 1% or 10% ethanol as vehicle for investigating acute (<1 h) and persistent (1-6 h) effects of resolvins on inflammatory pain. The reagents (10 μl) were delivered to the cerebral spinal fluid via intrathecal injection made by a spinal cord puncture between the L5 and L6 level with a 30G needle^38.
(§7) Behavioral analysis. Mice were habituated in the testing environment for two days and performed behavioral testing in a blinded manner. Formalin-evoked spontaneous inflammatory pain was assessed by measuring duration (seconds) animals spent on licking/flinching the affected paws every 5 min for 45 min. Capsaicin-induced spontaneous pain was aslo assessed for 10 min. For testing mechanical sensitivity, mice were put in boxes on an elevated metal mesh floor and stimulated hindpaw with a series of von Frey hairs with logarithmically incrementing stiffness (0.02-2.56 grams, Stoelting), presented perpendicular to the plantar surface. It was determined the 50% paw withdrawal threshold using Dixon's up-down method^40. For testing heat sensitivity, mice were placed in plastic boxes and tested heat sensitivity using Hargreaves radiant heat apparatus (IITC Life Science Inc.). The basal paw withdrawal latency was adjusted to 9-12 seconds and set a cut-off of 20 seconds to prevent tissue damage. The percent maximal possible antinociceptive effect (% M.P.E) was calculated using the equation % M.P.E.=[(PL−BL2)/(BL1−BL2)]×100. BL1, baseline latency before inflammation; BL2, baseline latency after inflammation but before drug injection; PL, latency post drug injection.
(§8) Intrathecal injection. To avoid systemic effects of drugs and target spinal mechanisms, drugs were delivered into cerebral spinal fluid (CSF) space around lumbosacral spinal cord via intrathecal (i.t.) administration. Spinal cord puncture was made with a 30G needle between the L5 and L6 level to deliver the reagents (10 μl) to the cerebral spinal fluid (Hylden and Wilcox, 1980)^5. […] In addition to spinal cord cells, intrathecal drug administration also affects DRG cells^6,7.
The anti-hyperalgesic efficacy of RvE1 prepared in 1% and 10% ethanol was compared on post-CFA day 3.

Experiment [3] concerns SNL-induced neuropathic pain. Nature of the experiment: Neuropathic pain model induced by spinal nerve ligation (SNL). Type of experiment: in vivo, mice. The settings on record: for SNL-induced heat hyperalgesia: 10 ng, i.t., one day after spinal nerve ligation. The procedure:
as §5, §7

Another experiment has as its system inflammatory pain. Nature of the experiment: Inflammatory pain models induced by formalin or CFA (summary statements). It is filed as in vivo, mouse. The procedure: as §5, §7
The subject of experiment [4] is formalin-induced inflammatory pain. Briefly: Formalin-induced spontaneous inflammatory pain (licking/flinching duration). Type of experiment: in vivo, mice. The settings on record: for reversal of RvE1's antinociceptive action, formalin 2nd phase: intrathecal, pertussis toxin 0.2 μg, naloxone 2 μg, ChemR23 siRNA 3 μg daily for 3 days before formalin; for formalin-induced pain behavior, 2nd phase: preemptive intrathecal injection, RvE1 0.3 and 1.0 ng, morphine 10 to 500 ng, NS-398 0.1, 1, and 10 μg, chemerin 0.45 to 100 ng. The procedure: as §5, §6, §7, §8
Intrathecal injection: DHA and EPA (Cayman Chemical, 10 μg, prepared in 1% ethanol), COX-2 inhibitor NS-398 (Sigma, 0.1, 1, and 10 μg, prepared in 1% ethanol in FIG. 1a-c or in 10% ethanol in FIG. 2c), morphine (Sigma, 10 to 500 ng, prepared in 1% ethanol in FIG. 1a-c), naloxone (Sigma, 2 μg, prepared in 1% ethanol), pertussis toxin (Tocris Bioscience, 0.2 μg, prepared in saline), chemerin (R & D Systems, 0.45 to 100 ng, prepared in 1% ethanol), TNF-α (R & D Systems, 20 ng, prepared in saline), and capsaicin (Sigma, 0.5 μg in 10 μl, prepared in 1% DMSO) were delivered. To examine whether pretreatment of RvE1 attenuated TNF-α-induced persistent hyperalgesia at 1, 3, and 24 h, RvE1 and TNF-α were mixed and injected at the same time (FIG. 3c). To examine whether pretreatment of RvE1 attenuates capsaicin-induced acute spontaneous pain, RvE1 and capsaicin were mixed and injected at the same time (FIG. 3f).

[5] abbreviates: capsaicin 100 nM, RvE1 1 ng/ml, chemerin 100 ng/ml, PD98059 and U0126 1 μM.

For `COc1cccc(-c2cc(=O)c3ccccc3o2)c1N` [PD98059, reference compound], the “capsaicin-evoked sEPSC frequency increase” value in the experiment with lamina II neurons (setting [5]) is on record as “blocked”. For the same molecule, the “TNF-α-induced potentiation of NMDA currents (NMDAR activation)” value (“TNF-α-induced potentiation” for short) in experiment [1] is “blocked”.

For the molecule `CC/C=C\C/C=C\C/C=C\C/C=C\C/C=C\C/C=C\CCC(=O)O` [DHA, docosahexaenoic acid, reference compound], the “effective doses relative to that of RvE1” value in experiment [2] is 10,000 times higher.

Take `Oc1cc2c(cc1O)CN(C(=S)NCCc1ccc(Cl)cc1)CCC2` [capsazepine, reference compound]: the “TNF-α-evoked sEPSC frequency increase” value in the experiment on lamina II neurons (TNF-α 10 ng/ml, RvE1 1 ng/ml, capsazepine 10 μM) is given as “reduced”. The “TNF-α-induced potentiation” value in experiment [1] is on record as “but not capsazepine blocked”. `CC/C=C\C[C@H](O)\C=C/C=C/C=C/[C@H](O)C/C=C\C/C=C\CCC(=O)O` [PD1]: in experiment [3] (neuropathic pain model induced by spinal nerve ligation), the nerve injury-induced hyperalgesia entry is reported as “potently attenuate”. Besides, the pain-like behaviors result with inflammatory pain was “potently inhibit”. With pertussis toxin, in experiment [4], the “reversal of RvE1's antinociceptive action, formalin 2nd phase” value is on record as “abrogated”. As to `CCC(=O)/C=C/C=C\C[C@@H](O)/C=C/C=C/C=C\[C@@H](O)CCCC(=O)O` [18-oxo-RvE1, reference compound], the CFA-evoked heat hyperalgesia result in experiment [2] (post-CFA day 3, DHA and EPA 10 μg) is “essentially inactive”. Regarding `N#CC(=C(/N)Sc1ccccc1N)/C(C#N)=C(\N)Sc1ccccc1N` [U0126, reference compound], the “capsaicin-evoked sEPSC frequency increase” value with lamina II neurons is listed as “blocked”. In addition, in experiment [1], the “TNF-α-induced potentiation” value is “blocked”. Take `CC/C=C\C/C=C\C/C=C\C/C=C\C/C=C\CCCC(=O)O` [EPA, eicosapentaenoic acid, reference compound]: the “effective doses relative to that of RvE1” value in experiment [2] was 10,000 times higher. For the molecule `C=CCN1CC[C@]23c4c5ccc(O)c4O[C@H]2C(=O)CC[C@@]3(O)[C@H]1C5` [naloxone], the “reversal of morphine's antinociceptive effect, formalin 2nd phase” value in experiment [4] (intrathecal naloxone 2 μg) is listed as “reversed”. Moreover, in experiment [4], the “reversal of RvE1's antinociceptive action, formalin 2nd phase” value is listed as “not RvE1's effect”. Turning to `CS(=O)(=O)Nc1ccc([N+](=O)[O-])cc1OC1CCCCC1` [NS-398], the “formalin-induced pain behavior, 2nd phase” value in experiment [4] is reported as “Reduction”. Turning to `COc1cc(CNC(=O)CCCC/C=C/C(C)C)ccc1O` [capsaicin, reference compound], the “increase in sEPSC frequency” value in the experiment on lamina II neurons (capsaicin 100 nM) was 2 fold. For the molecule `CN1CC[C@]23c4c5ccc(O)c4O[C@H]2[C@@H](O)C=C[C@H]3[C@H]1C5` [morphine], the “formalin-induced pain behavior, 2nd phase” value in experiment [4] is “Reduction”. Turning to `O=C(O)CCC[C@H](O)\C=C/C=C/C=C/[C@H](O)C/C=C\C=C\[C@@H](O)COc1ccc(F)cc1` [19-pf-RvE1, 19-(p-fluorophenoxy)-RvE1], in experiment [2] (post-CFA day 3), the “time for which hyperalgesia was reduced” value turned out to be 6 h. In addition, the SNL-induced heat hyperalgesia entry was “more persistent reduction in heat hyperalgesia” in experiment [3] and “reduces SNL-induced heat hyperalgesia” in experiment [3] (listed as modified RvE1).

B1: chemerin: a peptide agonist for ChemR23 (R & D Systems) (protein, UniProt Q99969 21-157, looked up)
Retinoic acid receptor …: ELTEAQRRGLQVALEEFHKHPPVQWAFQETSVESAVDTPFPAGIFVRLEFKLQQTSCRKRDWKKPECKVRPNGRKRKCLACIKLGSEDKVLGRLVHCPIETQVLREAEEHQETQCLRVQRAGEDPHSFYFPGQFAFS
modifications: Chemerin
Consider B1, for which the “formalin-induced pain behavior, 2nd phase” value in experiment [4] is on record as “dose-dependently attenuated”. The “capsaicin-evoked sEPSC frequency increase” value with lamina II neurons (setting [5]) is recorded as “abolished”.
